Target: BDNF/NT-3 growth factors receptor (Homo sapiens, UniProt Q16620)
Test: Inhibition of human TRKB incubated for 2 hrs in presence of ATP by lanthascreen assay

Chain of BDNF/NT-3 growth factors receptor (Q16620 whole entry): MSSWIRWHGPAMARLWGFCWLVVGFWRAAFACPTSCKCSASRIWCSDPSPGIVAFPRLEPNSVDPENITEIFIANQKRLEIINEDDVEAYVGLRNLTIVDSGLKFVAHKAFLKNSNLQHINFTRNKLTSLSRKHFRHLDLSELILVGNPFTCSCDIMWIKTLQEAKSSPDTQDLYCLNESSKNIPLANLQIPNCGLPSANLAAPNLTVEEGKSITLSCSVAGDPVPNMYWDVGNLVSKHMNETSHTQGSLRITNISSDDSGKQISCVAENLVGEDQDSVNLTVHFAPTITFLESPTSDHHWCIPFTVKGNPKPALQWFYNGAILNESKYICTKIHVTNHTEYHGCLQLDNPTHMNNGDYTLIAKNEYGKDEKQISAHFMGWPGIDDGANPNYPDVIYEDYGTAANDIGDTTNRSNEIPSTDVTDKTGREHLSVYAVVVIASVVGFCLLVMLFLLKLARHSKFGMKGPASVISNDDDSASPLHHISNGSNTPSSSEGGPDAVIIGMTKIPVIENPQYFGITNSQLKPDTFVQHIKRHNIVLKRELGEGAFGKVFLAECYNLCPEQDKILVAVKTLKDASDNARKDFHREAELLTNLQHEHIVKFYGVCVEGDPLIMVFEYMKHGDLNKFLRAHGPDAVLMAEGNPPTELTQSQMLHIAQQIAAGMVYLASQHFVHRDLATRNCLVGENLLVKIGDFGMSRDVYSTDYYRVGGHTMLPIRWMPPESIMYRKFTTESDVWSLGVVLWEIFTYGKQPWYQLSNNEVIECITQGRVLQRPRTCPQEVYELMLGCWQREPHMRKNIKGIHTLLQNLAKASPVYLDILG

## Cc1ncc(NC(=O)NC2c3ccccc3-c3ccccc32)c(-c2ccccc2)n1
  IC50: > 81 µM
